# Test results taken from ChEMBL document CHEMBL4402592, “Targeting Endoplasmic Reticulum α-Glucosidase I with a Single-Dose Iminosugar Treatment Protects against Lethal Influenza and Dengue Virus Infections” (J Med Chem, 2020).
# Calls of active or inactive are those of the source. No cut-off for these calls is given here.
# Key:
# dengue virus type 2 [1] = assay: Antiviral activity against Dengue virus 2 S221 infected in DENV antibody dependent enhancement AG129 mouse model assessed as animal survival at 750 mg/kg, po administered via gavage as two doses at 8 and 24 hrs post infection (reference value: 4%); type: functional
# Influenza A virus [2] = assay: Antiviral activity against Influenza A virus (A/Texas/36/1991(H1N1)) infected in BALB/c mouse assessed as median death time at 500 mg/kg, po administered via gavage as single dose at 24 hrs post infection (reference value: 8.5 days); type: functional
# Mus musculus [3] = assay: In vivo inhibition of ERGlu1 in BALB/c mouse assessed as increase in mono-glucosylated FOS level in spleen at 100 to 1000 mg/kg, po administered via gavage at 8 hrs post-infection and measured at 8 hrs post-dose by NP-HPLC analysis; type: functional, organism-based
# Influenza A virus [4] = assay: Antiviral activity against Influenza A virus (A/Texas/36/1991(H1N1)) infected in BALB/c mouse assessed as median death time at 750 mg/kg, po administered via gavage as single dose at 8 hrs post infection; type: functional
# Mus musculus [5] = assay: In vivo inhibition of ERGlu2 in BALB/c mouse assessed as increase in mono-glucosylated FOS level in serum at 100 mg/kg, po administered via gavage starting at 8 hrs post-infection and continuing tid for 5 days and measured at 8 hrs post-final dose by NP-HPLC analysis; type: functional, organism-based
# Influenza A virus [6] = assay: Antiviral activity against Influenza A virus (A/Texas/36/1991(H1N1)) infected in BALB/c mouse assessed as median death time at 500 mg/kg, po administered via gavage as single dose at 8 hrs post infection; type: functional
# dengue virus type 2 [7] = assay: Antiviral activity against Dengue virus 2 S221 infected in DENV antibody dependent enhancement AG129 mouse model assessed as animal survival at 750 mg/kg, po administered via gavage as two doses at 48 and 64 hrs post infection (reference value: 4%); type: functional
# Influenza A virus [8] = assay: Antiviral activity against Influenza A virus (A/Texas/36/1991(H1N1)) infected in BALB/c mouse assessed as animal survival at 250 mg/kg, po administered via gavage as three doses at 8, 32 and 56 hrs post infection (reference value: 0%); type: functional
# dengue virus type 2 [9] = assay: Antiviral activity against Dengue virus 2 S221 infected in DENV antibody dependent enhancement AG129 mouse model assessed as reduction in IL-10 level at 750 mg/kg, po administered via gavage as two doses at 36 hrs and 52 hrs post infection measured at 60 hrs post-infection by electrochemiluminescence based method; type: functional, organism-based
# Influenza A virus [10] = assay: Antiviral activity against Influenza A virus (A/Texas/36/1991(H1N1)) infected in BALB/c mouse assessed as animal survival at 750 mg/kg, po administered via gavage as three doses at 8, 32 and 56 hrs post infection (reference value: 0%); type: functional
# dengue virus type 2 [11] = assay: Antiviral activity against Dengue virus 2 S221 infected in DENV antibody dependent enhancement AG129 mouse model assessed as reduction in IL-10 level at 750 mg/kg, po administered via gavage as two doses at 36 hrs and 52 hrs post infection measured at 72 hrs post-infection by electrochemiluminescence based method; type: functional, organism-based
# dengue virus type 2 [12] = assay: Antiviral activity against Dengue virus 2 S221 infected in DENV antibody dependent enhancement AG129 mouse model assessed as reduction in KC-GRO level at 750 mg/kg, po administered via gavage as single dose at 36 hrs post infection measured at 60 hrs post-infection by electrochemiluminescence based method; type: functional, organism-based
# dengue virus type 2 [13] = assay: Antiviral activity against Dengue virus 2 S221 infected in DENV antibody dependent enhancement AG129 mouse model assessed as animal survival at 250 mg/kg, po administered via gavage as two doses at 36 and 52 hrs post infection (reference value: 4%); type: functional
# dengue virus type 2 [14] = assay: Antiviral activity against Dengue virus 2 S221 infected in DENV antibody dependent enhancement AG129 mouse model assessed as reduction in viremia by measuring foci of BHK21 cells containing DENV E at 750 mg/kg, po administered via gavage as two doses at 36 hrs and 52 hrs post infection measured after titration of compound treated infected animal serum with BHK21 cells by TrueBlue staining based focus forming assay; type: functional, organism-based
# dengue virus type 2 [15] = assay: Antiviral activity against Dengue virus 2 S221 infected in DENV antibody dependent enhancement AG129 mouse model assessed as reduction in viremia at 750 mg/kg, po administered via gavage as single dose at 36 hrs post infection measured within 8 hrs by qRT-PCR analysis; type: functional
# dengue virus type 2 [16] = assay: Antiviral activity against Dengue virus 2 S221 infected in DENV antibody dependent enhancement AG129 mouse model assessed as reduction in KC-GRO level at 750 mg/kg, po administered via gavage as two doses at 36 hrs and 52 hrs post infection measured at 72 hrs post-infection by electrochemiluminescence based method; type: functional, organism-based
# dengue virus type 2 [17] = assay: Antiviral activity against Dengue virus 2 S221 infected in DENV antibody dependent enhancement AG129 mouse model assessed as animal survival at 375 mg/kg, po administered via gavage as two doses at 24 and 40 hrs post infection (reference value: 4%); type: functional
# Influenza A virus [18] = assay: Antiviral activity against Influenza A virus (A/Texas/36/1991(H1N1)) infected in BALB/c mouse assessed as animal survival at 100 mg/kg, po administered via gavage starting at 8 hrs post-infection and continuing TID for 5 days (reference value: 0%); type: functional
# Influenza A virus [19] = assay: Antiviral activity against Influenza A virus (A/Texas/36/1991(H1N1)) infected in BALB/c mouse assessed as median death time at 500 mg/kg, po administered via gavage as single dose at 16 hrs post infection (reference value: 8.5 days); type: functional
# dengue virus type 2 [20] = assay: Antiviral activity against Dengue virus 2 S221 infected in DENV antibody dependent enhancement AG129 mouse model assessed as animal survival at 250 mg/kg, po administered via gavage as two doses at 8 and 24 hrs post infection (reference value: 4%); type: functional
# Influenza A virus [21] = assay: Antiviral activity against Influenza A virus (A/Texas/36/1991(H1N1)) infected in BALB/c mouse assessed as median death time at 750 mg/kg, po administered via gavage as single dose at 24 hrs post infection (reference value: 8.5 days); type: functional
# Influenza A virus [22] = assay: Antiviral activity against Influenza A virus (A/Texas/36/1991(H1N1)) infected in BALB/c mouse assessed as animal survival at 750 mg/kg, po administered via gavage as two doses at 8 and 32 hrs post infection (reference value: 0%); type: functional
# Influenza A virus [23] = assay: Antiviral activity against Influenza A virus (A/Texas/36/1991(H1N1)) infected in BALB/c mouse assessed as median death time at 750 mg/kg, po administered via gavage as single dose at 16 hrs post infection (reference value: 8.5 days); type: functional
# Influenza A virus [24] = assay: Antiviral activity against Influenza A virus (A/Texas/36/1991(H1N1)) infected in BALB/c mouse assessed as median death time at 750 mg/kg, po administered via gavage as three dosed at 8, 32 and 56 hrs post infection (reference value: 8 days); type: functional
# dengue virus type 2 [25] = assay: Antiviral activity against Dengue virus 2 S221 infected in DENV antibody dependent enhancement AG129 mouse model assessed as reduction in TNF-alpha level at 750 mg/kg, po administered via gavage as single dose at 36 hrs post infection measured at 72 hrs post-infection by electrochemiluminescence based method; type: functional, organism-based
smiles,measurement,setting,value
COCCCCCCCCCN1C[C@H](O)[C@@H](O)[C@H](O)[C@H]1CO.Cl,survival at 750 mg/kg,dengue virus type 2 [1],94%
same,Time,Influenza A virus [2],11 days
same,inhibition,Mus musculus [3],Active
same,Time,Influenza A virus [4],>14 days
same,inhibition,Mus musculus [5],Active
same,Time,Influenza A virus [6],12.5 days
same,survival at 750 mg/kg,dengue virus type 2 [7],100%
same,survival at 250 mg/kg,Influenza A virus [8],0%
same,Activity,dengue virus type 2 [9],Active
same,survival at 750 mg/kg,Influenza A virus [10],100%
same,Activity,dengue virus type 2 [11],Active
same,Activity,dengue virus type 2 [12],Active
same,survival at 250 mg/kg,dengue virus type 2 [13],100%
same,Activity,dengue virus type 2 [14],Active
same,log(activity),dengue virus type 2 [15],>1
same,Activity,dengue virus type 2 [16],Active
same,survival at 375 mg/kg,dengue virus type 2 [17],100%
same,survival at 100 mg/kg,Influenza A virus [18],90%
same,Time,Influenza A virus [19],12 days
same,survival at 250 mg/kg,dengue virus type 2 [20],86%
same,Time,Influenza A virus [21],10 days
same,survival at 750 mg/kg,Influenza A virus [22],100%
same,Time,Influenza A virus [23],>14 days
same,Time,Influenza A virus [24],>14 days
same,Activity,dengue virus type 2 [25],Active
